Experimental data reported in ChEMBL document CHEMBL1157155, “Bioactive alkenylphenols from Piper obliquum” (Bioorg Med Chem, 2008).
In brackets after ≈: the same amount, converted by molar mass. Activity calls are given as the source filed them. No cut-off for these calls is given here.

How the values were obtained:
Jurkat [1] = assay: (§1) Effect on NF-kappaB expressed in Jurkat 5.1 cells assessed as inhibition of TNF-alpha-induced HIV1-LTR transactivation preincubated for 15 mins by luciferase gene reporter assay; type: cell-based
Escherichia coli = assay: Antibacterial activity against Escherichia coli after 24 hrs by broth microdilution method; type: functional
[2] = system: Staphylococcus epidermidis; assay: Antibacterial activity against Staphylococcus epidermis after 24 hrs by broth microdilution method; type: functional
Jurkat [3] = assay: Effect on NF-kappaB expressed in Jurkat 5.1 cells assessed as inhibition of TNF-alpha-induced IkappaBalpha degradation at 10 uM preincubated for 15 mins by Western blot; type: cell-based
[4] = as §1; type: cell-based
[5] = Effect on NF-kappaB expressed in HeLa-Tet-On cells assessed as inhibition of doxycyclin-induced HIV1-LTR transactivation preincubated for 15 mins by luciferase gene reporter assay; type: cell-based
Jurkat [6] = assay: Effect on NF-kappaB expressed in Jurkat 5.1 cells assessed as inhibition of TNF-alpha-induced IkappaBalpha phosphorylation at 10 uM preincubated for 15 mins by Western blot; type: cell-based

| SMILES | Activity (Jurkat [1]) | MIC (Escherichia coli) [µg/mL] | MIC [2] [µg/mL] | Activity (Jurkat [3]) | IC50 [4] [µM] | Activity [5] | Activity (Jurkat [6]) |
| --- | --- | --- | --- | --- | --- | --- | --- |
| COc1ccc(/C=C/C(=O)c2c(O)cc(OC)c(OC)c2OC)cc1OC | inactive | 10 (≈ 26.7 µM) | 10 (≈ 26.7 µM) | – | – | – | – |
| CCCCCCCCC/C=C/CCCc1ccc(O)cc1 [OBLIQUOL A] | – | 5 (≈ 17.3 µM) | 2.5 (≈ 8.67 µM) | – | – | – | – |
| CC(C)=CCC/C(C)=C/CCC1(C)CC(=O)c2cc(C(=O)O)ccc2O1 (configuration not stated) | inactive | 100 (≈ 281 µM) | 50 (≈ 140 µM) | – | – | – | – |
| CCCCCCCCC/C=C/CCCc1ccc(O)c(O)c1 [OBLIQUOL B] | – | 5 (≈ 16.4 µM) | 5 (≈ 16.4 µM) | Active | 5 | inactive | Active |
| CC1(C)S[C@@H]2[C@H](NC(=O)[C@H](N)c3ccccc3)C(=O)N2[C@H]1C(=O)O [AMPICILLIN] | – | 5 (≈ 14.3 µM) | 1 (≈ 2.86 µM) | – | – | – | – |
| CC(C)=CCC/C(C)=C/CC/C(C)=C/Cc1cc(C(=O)O)ccc1O | inactive | – | – | – | – | – | – |
